Experimental data published in patent publication US20100016232A1, “Treatment Of Inflammatory Diseases With Mammal Beta Defensins” (Novozymes A/S, priority 2008, published 2010).
Marks after values point to notes of the source that are not given here. Where no end group is shown, it is not given here.

What was measured:
[1] = system: collagen-induced arthritis (CIA) in the mouse; test: Collagen-induced rheumatoid arthritis model, clinical arthritis score; assay type: in vivo; parameters: key: each paw scored 0-4 by ascending severity; total summed over paws; conditions: Group B, 1 mg/kg IP once daily
Description: All animals were subjected on Day 0 of the study (study commencement) to an intradermal injection into the tail of 0.1 ml Type II Collagen/CFA emulsion (200 μg collagen per mouse) under light Isoflurane anesthesia, using a plastic syringe. The location of injection was at an approximate caudal distance of about 1 cm from the base of the tail. A collagen challenge (200 μg/mouse) was presented to the animals by IP injection of collagen and PBS on Day 21.
Treatments were commenced on day 14 of the study and continued once daily throughout. All surviving mice were terminated on study day 42.
Mice were examined for signs of arthritogenic responses in peripheral joints on study day 0, 14, 21 and thereafter five times weekly until termination of the study. Arthritis reactions were reported for each paw according to a 0-4 scale in ascending order of severity as shown below:
In accordance with Home Office regulations mice with a total clinical score of equal to or greater than 12 were culled due to arthritis severity. The clinical score of these mice at termination was carried forward in the analysis for the remainder of the study in order that the data was not artificially skewed by the removal of high scoring mice.

[2] = system: IL-23, human CD14+ monocyte-derived dendritic cells; test: IL-23 in supernatants of human CD14+ monocyte-derived dendritic cells, ELISA; assay type: cell-based; conditions: Dexamethasone 1 μM
Description: The DCs were prepared according to a modified protocol originally described by Romani et al. Briefly, peripheral blood mononuclear cells (PBMCs) were purified from buffy coats of healthy donors by centrifugation over a Ficoll-pague (GE-healthcare) gradient. Monocytes were isolated from PBMC by positive selection of CD14+ cells by magnetic beads (Dynal, Invitrogen) according to the manufacturer's instructions. The CD14+ monocytes were cultured in 6-well plates in RPMI/2% Human AB Serum recombinant human recombinant granulocyte-macrophage colony-stimulating factor (GM-CSF, 20 ng/ml) and IL-4 (20 ng/ml) (PeproTech) for 6 days, replenishing the medium/cytokines after 2 and 5 days.
(§1) Cell culture supernatants were collected and stored at −80° C. Amounts of IL-23 was measured by standard sandwich ELISA using commercially available antibodies and standards according to the manufacturer's protocols (eBioscience).

IL-23, human PBMC = test: IL-23 in supernatants of human PBMC, ELISA; assay type: cell-based
Description: Peripheral blood was drawn from healthy volunteers (with approval from the relevant ethical committee in Denmark). Heparinized blood was diluted 1/1 v/v with RPMI and were subjected to Ficoll density centrifugation within 2 h of drawing. Plasma was collected from the top from individual donors and was kept on ice until it was used at 2% in the culture medium (autologous culture medium). Isolated PBMC were resuspended in autologous culture medium and seeded in 96-well culture plates with 255.000 cells per well in a total of 200 μl. […] The concentrations used for stimulation were optimized on 3 different donors in initial experiments, for LPS two different concentrations were used to be sure to be on a cytokine level that is possible to modulate. In some experiments PBMC were treated with Dexamethason and Indomethacin alone and together with LPS or LTA as a control on downregulation of inflammatory cytokines. The supernatants were collected after incubation at 37° C. for 24 hours, and stored at −80° C. until cytokine measurement. Viability was measured by Alamar Blue (Biosource, DALL 1100) in all experiments and in some cases also by MTS (Promega) according to manufacturer's instruction and was in some experiments also judged by counting of the cells by a Nucleocounter. […]
as §1

[3] = system: IL-10 production from human peripheral blood mononuclear cells (PBMC); test: IL-10 production from human PBMC, Cytometric Bead Array; assay type: cell-based; conditions: concentration of control compound not given, Table 17
Description: (§2) Peripheral blood was drawn from healthy volunteers (with approval from the relevant ethical committee in Denmark). Heparinized blood was diluted 1/1 v/v with RPMI and were subjected to Ficoll density centrifugation within 2 h of drawing. Plasma was collected from the top from individual donors and was kept on ice until it was used at 2% in the culture medium (autologous culture medium). Isolated PBMC were resuspended in autologous culture medium and seeded in 96-well culture plates with 255.000 cells per well in a total of 200 μl. […] The concentrations used for stimulation were optimized on 3 different donors in initial experiments, for LPS two different concentrations were used to be sure to be on a cytokine level that is possible to modulate. In some experiments PBMC were treated with Dexamethason and Indomethacin alone and together with LPS or LTA as a control on downregulation of inflammatory cytokines. The supernatants were collected after incubation at 37° C. for 24 hours, and stored at −80° C. until cytokine measurement. Viability was measured by Alamar Blue (Biosource, DALL 1100) in all experiments and in some cases also by MTS (Promega) according to manufacturer's instruction and was in some experiments also judged by counting of the cells by a Nucleocounter.
(§3) Cytokine production in supernatants was measured by flow cytometry with a human inflammation cytometric bead array (CBA) according to manufacturer's instructions (BD) on a FACSarray flow cytometer. The following cytokines were measured: IL-8, IL-1β, IL-10, TNF, IL-12 p70, IL-6. In some experiments, cytokines were measured by ELISA kits from R&D systems (IL-10, TNF-α, IL-1β) according to the manufacturer' instruction.

[4] = system: IL-1β production from human peripheral blood mononuclear cells (PBMC); test: IL-1β production from human PBMC, Cytometric Bead Array; assay type: cell-based; conditions: concentration of control compound not given, Table 18
Description: as §2, §3

[5] = system: TNF production from mouse peripheral blood mononuclear cells (PBMC); test: TNF production from mouse PBMC, Cytometric Bead Array; assay type: cell-based
Description: Mouse peripheral blood mononuclear cells were isolated from blood of ten NMRI mice. In short, heparinized blood was diluted 1/1 v/v with RPMI and subjected to Ficoll density centrifugation within 2 h of drawing. Plasma was collected from the top and discarded. Isolated PBMC were resuspended in culture medium (RPMI 1640 (Gibco, 42401) w/1% penicillin and streptomycin and 1% L-Glutamine) and seeded in 96-well culture plates with 115.500 cells per well in a total of 200 μl. […] The supernatants were collected after incubation at 37° C. for 24 hours, and stored at −80° C. until cytokine measurement.
Cytokine production in supernatants was measured by flow cytometry with a mouse inflammation cytometric bead array (CBA) according to manufacturer's instructions (BD) on a FACSarray flow cytometer.

[6] = system: TNF production from human peripheral blood mononuclear cells (PBMC); test: TNF production from human PBMC, Cytometric Bead Array; assay type: cell-based
Description: as §2, §3

[7] = LPS 20 ng/ml, treatment 1 μg/ml
[8] = LPS 0.6 ng/ml, concentration of control compound not given, Table 16
[9] = LPS 20 ng/ml, concentration of control compound not given, Table 16
[10] = LPS 20 ng/ml, treatment 1 μg/ml, Table 21
[11] = Medium, treatment 1 μg/ml, Table 21

C[C@@H]1C[C@H]2[C@@H]3CCC4=CC(=O)C=C[C@]4(C)[C@@]3(F)[C@@H](O)C[C@]2(C)[C@@]1(O)C(=O)CO [Dexamethasone, reference compound]
Mean Arthritic Score ([1]; Study Day 0): 0.0 | Mean Arthritic Score ([1]; Study Day 14): 0.4 | Mean Arthritic Score ([1]; Study Day 21): 0.0 | Mean Arthritic Score ([1]; Study Day 22): 0.0 | Mean Arthritic Score ([1]; Study Day 23): 0.0 | Mean Arthritic Score ([1]; Study Day 26): 0.0* | Mean Arthritic Score ([1]; Study Day 27): 0.0* | Mean Arthritic Score ([1]; Study Day 28): 0.0* | Mean Arthritic Score ([1]; Study Day 29): 0.0* | Mean Arthritic Score ([1]; Study Day 30): 0.0* | Mean Arthritic Score ([1]; Study Day 33): 0.0* | Mean Arthritic Score ([1]; Study Day 34): 0.0* | Mean Arthritic Score ([1]; Study Day 35): 0.0* | Mean Arthritic Score ([1]; Study Day 36): 0.0* | Mean Arthritic Score ([1]; Study Day 37): 0.0* | Mean Arthritic Score ([1]; Study Day 40): 0.0* | Mean Arthritic Score ([1]; Study Day 41): 0.0* | IL-23 ([2]; LPS (100 ng/ml) and IFN-γ (20 ng/ml)): 1147 pg/mL | IL-23 ([2]; Unstimulated): 424 pg/mL | IL-23 (IL-23, human PBMC; Control (medium), treatment 3.5 ng/ml): 222 pg/mL | IL-23 (IL-23, human PBMC; LTA 5 μg/ml, treatment 3.5 ng/ml): 223 pg/mL | IL-10 % of control ([3]; LPS 0.6 ng/ml): 70% | IL-10 % of control ([3]; LPS 20 ng/ml): 67% | IL-1β % of control ([4]; LPS 0.6 ng/ml): 14% | IL-1β % of control ([4]; LPS 20 ng/ml): 44% | TNF ([5]; LPS 20 ng/ml, treatment 3.5 ng/ml): 328 pg/mL

Infliximab: antibody which binds to TNF-alpha (Remicade), positive control [reference compound]
IL-23 (IL-23, human PBMC; Control (medium), treatment 1 μg/ml): 227 pg/mL | IL-23 (IL-23, human PBMC; LPS 0.6 ng/ml, treatment 1 μg/ml): 356 pg/mL | IL-23 (IL-23, human PBMC; [7]): 373 pg/mL | IL-23 (IL-23, human PBMC; LTA 5 μg/ml, treatment 1 μg/ml): 349 pg/mL | TNF [6, 8]: 0 pg/mL | TNF % of control [6, 8]: 0% | TNF [6, 9]: 0 pg/mL | TNF % of control [6, 9]: 0% | TNF [6, 10]: 1 pg/mL | TNF ([6]; Medium, concentration of control compound not given, Table 16): 0 pg/mL | TNF [6, 11]: 0 pg/mL | IL-10 ([3]; LPS 0.6 ng/ml): 46 pg/mL | IL-10 % of control ([3]; LPS 0.6 ng/ml): 69% | IL-10 ([3]; LPS 20 ng/ml): 63 pg/mL | IL-10 % of control ([3]; LPS 20 ng/ml): 56% | IL-10 ([3]; Medium): 0 pg/mL | IL-1β ([4]; LPS 0.6 ng/ml): 636 pg/mL | IL-1β % of control ([4]; LPS 0.6 ng/ml): 86% | IL-1β ([4]; LPS 20 ng/ml): 2704 pg/mL | IL-1β % of control ([4]; LPS 20 ng/ml): 106% | IL-1β ([4]; Medium): 0 pg/mL | TNF [5, 7]: 2119 pg/mL | TNF ([5]; Medium, treatment 1 μg/ml): 530 pg/mL

mBD3: mouse beta defensin 3, SEQ ID NO:6; produced recombinantly by the hBD2 protocol (KINNPVSCLRKGGRCWNRCIGNTRQIGSCGVPFLKCCKRK; ends and bridges not checked; cysteine pairing not given here; listed as Mus musculus)
TNF [6, 10]: 384 pg/mL | TNF ([6]; LPS 20 ng/ml, treatment 10 μg/ml, Table 21): 51 pg/mL | TNF ([6]; LPS 20 ng/ml, treatment 100 μg/ml, Table 21): 166 pg/mL | TNF [6, 11]: 2 pg/mL | TNF ([6]; Medium, treatment 10 μg/ml, Table 21): 2 pg/mL | TNF ([6]; Medium, treatment 100 μg/ml, Table 21): 39 pg/mL | TNF [5, 7]: 1600 pg/mL | TNF ([5]; LPS 20 ng/ml, treatment 10 μg/ml): 297 pg/mL | TNF ([5]; LPS 20 ng/ml, treatment 100 μg/ml): 195 pg/mL | TNF ([5]; Medium, treatment 1 μg/ml): 347 pg/mL | TNF ([5]; Medium, treatment 10 μg/ml): 180 pg/mL | TNF ([5]; Medium, treatment 100 μg/ml): 182 pg/mL
